Assay results as given in patent US20070135398A1, “Process for the preparation of ciclesonide” (priority 2005, published 2007).

What was measured:
[1] = Decomposition in ethanol-water mixture; format: physicochemical; conditions: 20 mg in 6 mL ethanol and 4 mL purified water, 80° C., 64 hours
Procedure: The HPLC analysis was carried out using the following equipment and methodology. The column was a Prodigy ODS, 220×4.6 mm, 5 μm. The eluent was ethanol/water 50/50 at a flow rate of 2 mL/min. The detector was an UV-DAD at 242 nm.
Decomposition in Ethanol-Water Mixture
20 mg ciclesonide were dissolved in 6 mL ethanol and 4 mL purified water and the solution was kept at 80° C. for 64 hours.

[2] = ester prodrug; Current Opinion in Investigational Drugs 2002, 3(1) 78-83; cited from earlier work

- formation of the corresponding 21-hydroxy analogue [1]: 3.99%
- purity after storage in ethanol/water solution ([1]; initial purity 99.74%): 95.34%
Structure (SMILES): CC(C)C(=O)OCC(=O)[C@@]12O[C@H](C3CCCCC3)O[C@@H]1C[C@H]1[C@@H]3CCC4=CC(=O)C=C[C@]4(C)[C@H]3[C@@H](O)C[C@@]12C [ciclesonide, pregna-1,4-diene-3,20-dione, 16,17-[[(R)-cyclohexylmethylene]bis(oxy)]-11-hydroxy-21-(2-methyl-1-oxopropoxy)-(11β,16α)-(9CI)]
- oral bioavailability [2]: essentially devoid of oral bioavailability
